Where a name gives a salt, the structure may show the parent alone.
target: T1, glucokinase (GK) (Homo sapiens, UniProt P35557); assay: enzymatic glucokinase activity assay (ATP consumption, KinaseGlo luminescence); type: biochemical; conditions: recombinant GK residues 12-465; 5 μM ATP, 5 mM Glucose; Kact = concentration that displays 50% of the maximal increase in GK activity; read-out: pKact
T1 construct: I.D. No. 1 corresponds to residues 12-465 of glucokinase; made in house; host or cells: E. coli DH10b-T1r
T1 sequence (P35557 with tags, fused parts or gaps isoform P35557-2): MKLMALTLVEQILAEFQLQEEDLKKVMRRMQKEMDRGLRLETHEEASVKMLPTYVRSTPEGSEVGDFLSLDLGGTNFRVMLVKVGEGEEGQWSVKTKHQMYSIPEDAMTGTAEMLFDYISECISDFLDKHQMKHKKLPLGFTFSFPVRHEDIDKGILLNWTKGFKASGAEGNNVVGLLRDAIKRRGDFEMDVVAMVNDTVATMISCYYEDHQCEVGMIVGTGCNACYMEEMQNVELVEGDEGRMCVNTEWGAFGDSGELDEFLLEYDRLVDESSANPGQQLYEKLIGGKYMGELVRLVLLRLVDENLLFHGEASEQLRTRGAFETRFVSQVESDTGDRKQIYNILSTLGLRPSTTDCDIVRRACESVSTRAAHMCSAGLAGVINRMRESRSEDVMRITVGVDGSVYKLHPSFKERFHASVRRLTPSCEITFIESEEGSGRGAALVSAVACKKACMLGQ
From the text: The activity of compounds as glucokinase activators may be assayed in vitro, in vivo or in a cell line. Provided below is an enzymatic glucokinase activity assay.
Purified glucokinase may be obtained as follows. […] SEQ.
The expression of recombinant glucokinase protein may be carried out by transformation and growth of DH10b-T1r E. coli cells incorporating the (pFLAG-CTC) plasmid in LB media. Protein expression can be induced in this system by the addition of IPTG to the culture medium.
Recombinant protein may be isolated from cellular extracts by passage over Sepharose Q Fast Flow resin (Pharmacia). This partially purified GK extract may then be further purified by a second passage over Poros HQ 10 (Applied Biosystems). The purity of GK may be determined on denaturing SDS-PAGE gel. Purified GK may then be concentrated to a final concentration of 20.0 mg/ml. After flash freezing in liquid nitrogen, the proteins can be stored at −78° C. in a buffer containing 25 mM TRIS-HCl pH 7.6, 50 mM NaCl, and 0.5 mM TCEP.
The activation properties of compounds for GK may be determined using a black 384-well-plate format under the following reaction conditions: 25 mM Hepes pH 7.2, 25 mM NaCl, 10 mM MgCl2, 0.01% Brij35, 1 mM DTT, 5 μM ATP, 5 mM Glucose 2% DMSO. The amount of ATP consumed may be determined quantitatively by addition of equal volume of luciferase reagent (luciferase+beetle luciferin—KinaseGlo Luminescent Kinase Assay kit from Promega). The luminescence intensity may be measured by using the Analyst HT from LJL Biosystems.
The reaction mixture may then be incubated at room temperature for 60 min, and quenched and developed by addition of 10 μL of luciferase reagent. Luminescence intensities of the resulting reaction mixtures may be measured after a 10 min incubation at room temperature. The luminescence intensity may be measured by using the Analyst HT from LJL Biosystems.
pKact values may be calculated by non-linear curve fitting of the compound concentrations and luminescence intensities to a standard inhibition/activation equation.

**Q.** With `Cc1cc(N2CCOCC2)cc(=O)n1[C@H](CC1CCCCC1)C(=O)Nc1nccs1` (stereo in doubt) [Example 79, 3-cyclohexyl-2-(6-methyl-4-morpholino-2-oxopyridin-1(2H)-yl)-N-(thiazol-2-yl)propanamide] as the compound, how does the EC50 read?
**A.** > 15.8 µM

**Q.** With `Cc1cc(C#CCO)cc(=O)n1[C@H](CC1CCOCC1)C(=O)Nc1ncc(Cl)s1` (stereo in doubt) [Example 137, N-(5-chlorothiazol-2-yl)-2-(4-(3-hydroxyprop-1-ynyl)-6-methyl-2-oxopyridin-1(2H)-yl)-3-(tetrahydro-2H-pyran-4-yl)propanamide] as the compound, how does the EC50 read?
**A.** > 15.8 µM

**Q.** With `Cc1cc(O)cc(=O)n1C(CC1CCCCC1)C(=O)Nc1nccs1` (stereo not drawn) [Example 1, 3-cyclohexyl-2-(4-hydroxy-6-methyl-2-oxopyridin-1(2H)-yl)-N-(thiazol-2-yl)propanamide trifluoroacetic acid salt] as the compound, how does the EC50 read?
**A.** > 15.8 µM

**Q.** How did the EC50 turn out when `COc1cc(C)n(C(CC2CCCCC2)C(=O)Nc2nccs2)c(=O)c1` (stereo not drawn) [Example 2, 3-cyclohexyl-2-(4-methoxy-6-methyl-2-oxopyridin-1(2H)-yl)-N-(thiazol-2-yl)propanamide trifluoroacetic acid salt] was run?
**A.** > 15.8 µM

**Q.** `Cc1cc(S(C)(=O)=O)cc(=O)n1C(CC1CCCCC1)C(=O)Nc1nccs1` (stereo not drawn) [Example 3, 3-cyclohexyl-2-(6-methyl-4-(methylsulfonyl)-2-oxopyridin-1(2H)-yl)-N-(thiazol-2-yl)propanamide trifluoroacetic acid salt] was tested. Which EC50 did it give?
**A.** 1.58 to 15.8 µM

**Q.** `CCS(=O)(=O)c1cc(C)n(C(CC2CCCCC2)C(=O)Nc2nccs2)c(=O)c1` (stereo not drawn) [Example 4, 3-cyclohexyl-2-(4-(ethylsulfonyl)-6-methyl-2-oxopyridin-1(2H)-yl)-N-(thiazol-2-yl)propanamide trifluoroacetic acid salt] was tested. Which EC50 did it give?
**A.** 1.58 to 15.8 µM

**Q.** Which EC50 does the source give for `Cc1cc(S(=O)(=O)C2CCCC2)cc(=O)n1C(CC1CCCCC1)C(=O)Nc1nccs1` (stereo not drawn) [Example 5, 3-cyclohexyl-2-(4-(cyclopentylsulfonyl)-6-methyl-2-oxopyridin-1(2H)-yl)-N-(thiazol-2-yl)propanamide trifluoroacetic acid salt] here?
**A.** < 1.58 µM

**Q.** With `Cc1cc(S(=O)(=O)C2CCCC2)cc(=O)n1C(CC1CCCCC1)C(=O)Nc1ccc(C(N)=O)cn1` (stereo not drawn) [Example 6, 6-(3-cyclohexyl-2-(4-(cyclopentylsulfonyl)-6-methyl-2-oxopyridin-1(2H)-yl)propanamido)nicotinamide trifluoroacetic acid salt] as the compound, how does the EC50 read?
**A.** < 1.58 µM

**Q.** For `Cc1cc(S(C)(=O)=O)cc(=O)n1C(CC1CCOCC1)C(=O)Nc1nccs1` (stereo not drawn) [Example 7, 2-(6-methyl-4-(methylsulfonyl)-2-oxopyridin-1(2H)-yl)-3-(tetrahydro-2H-pyran-4-yl)-N-(thiazol-2-yl)propanamide trifluoroacetic acid salt], which EC50 is on record?
**A.** > 15.8 µM

**Q.** `O=C(Nc1nccs1)C(CC1CCCCC1)n1ccc(S(=O)(=O)C2CCCC2)cc1=O` (stereo not drawn) [Example 8, 3-cyclohexyl-2-(4-(cyclopentylsulfonyl)-2-oxopyridin-1(2H)-yl)-N-(thiazol-2-yl)propanamide trifluoroacetic acid salt] was tested. Which EC50 did it give?
**A.** < 1.58 µM

**Q.** With `CS(=O)(=O)c1ccn(C(Cc2cc(F)ccc2Cl)C(=O)Nc2ncc(Cl)s2)c(=O)c1` (stereo not drawn) [Example 9, 3-(2-chloro-5-fluorophenyl)-N-(5-chlorothiazol-2-yl)-2-(4-(methylsulfonyl)-2-oxopyridin-1(2H)-yl)propanamide] as the compound, how does the EC50 read?
**A.** > 15.8 µM

**Q.** How did the EC50 turn out when `Cc1ccc(CC(C(=O)Nc2nccs2)n2c(C)cc(S(=O)(=O)C3CCCC3)cc2=O)cc1` (stereo not drawn) [Example 10, 2-(4-(cyclopentylsulfonyl)-6-methyl-2-oxopyridin-1(2H)-yl)-N-(thiazol-2-yl)-3-p-tolylpropanamide] was run?
**A.** > 15.8 µM

**Q.** Which EC50 does the source give for `Cc1cc(S(=O)(=O)C2CCCC2)cc(=O)n1C(CC(C)C)C(=O)Nc1nccs1` (stereo not drawn) [Example 11, 2-(4-(cyclopentylsulfonyl)-6-methyl-2-oxopyridin-1(2H)-yl)-4-methyl-N-(thiazol-2-yl)pentanamide] here?
**A.** < 1.58 µM

**Q.** With `Cc1cc(S(=O)(=O)C2CCCC2)cc(=O)n1C(CC1CC1)C(=O)Nc1nccs1` (stereo not drawn) [Example 12, 2-(4-(cyclopentylsulfonyl)-6-methyl-2-oxopyridin-1(2H)-yl)-3-cyclopropyl-N-(thiazol-2-yl)propanamide] as the compound, how does the EC50 read?
**A.** 1.58 to 15.8 µM

**Q.** For `O=C(Nc1nccs1)[C@H](CC1CCCCC1)n1ccc(S(=O)(=O)C2CCCC2)cc1=O` [Example 13, (S)-3-cyclohexyl-2-(4-(cyclopentylsulfonyl)-2-oxopyridin-1(2H)-yl)-N-(thiazol-2-yl)propanamide], which EC50 is on record?
**A.** < 1.58 µM

**Q.** `Cc1cc(S(=O)(=O)C2CCCC2)cc(=O)n1C(CC1CCCC1)C(=O)Nc1nccs1` (stereo not drawn) [Example 14, 3-cyclopentyl-2-(4-(cyclopentylsulfonyl)-6-methyl-2-oxopyridin-1(2H)-yl)-N-(thiazol-2-yl)propanamide] was tested. Which EC50 did it give?
**A.** < 1.58 µM

**Q.** For `CS(=O)(=O)c1ccn(C(Cc2ccsc2)C(=O)Nc2ncc(Cl)s2)c(=O)c1` (stereo not drawn) [Example 15, N-(5-chlorothiazol-2-yl)-2-(4-(methylsulfonyl)-2-oxopyridin-1(2H)-yl)-3-(thiophen-3-yl)propanamide], which EC50 is on record?
**A.** > 15.8 µM

**Q.** How did the EC50 turn out when `Cc1cc(S(=O)(=O)C2CCCC2)cc(=O)n1C(CC1CCOCC1)C(=O)Nc1nccs1` (stereo not drawn) [Example 16, 2-(4-(cyclopentylsulfonyl)-6-methyl-2-oxopyridin-1(2H)-yl)-3-(tetrahydro-2H-pyran-4-yl)-N-(thiazol-2-yl)propanamide] was run?
**A.** 1.58 to 15.8 µM

**Q.** For `CS(=O)(=O)c1ccn(C(Cc2c(Cl)cccc2Cl)C(=O)Nc2ncc(Cl)s2)c(=O)c1` (stereo not drawn) [Example 17, N-(5-chlorothiazol-2-yl)-3-(2,6-dichlorophenyl)-2-(4-(methylsulfonyl)-2-oxopyridin-1(2H)-yl)propanamide], which EC50 is on record?
**A.** > 15.8 µM

**Q.** With `CCCCC(C(=O)Nc1nccs1)n1c(C)cc(S(=O)(=O)C2CCCC2)cc1=O` (stereo not drawn) [Example 18, 2-(4-(cyclopentylsulfonyl)-6-methyl-2-oxopyridin-1(2H)-yl)-N-(thiazol-2-yl)hexanamide] as the compound, how does the EC50 read?
**A.** 1.58 to 15.8 µM

**Q.** Which EC50 does the source give for `Cc1cc(S(=O)(=O)C2CCCC2)cc(=O)n1C(CCC(C)C)C(=O)Nc1nccs1` (stereo not drawn) [Example 19, 2-(4-(cyclopentylsulfonyl)-6-methyl-2-oxopyridin-1(2H)-yl)-5-methyl-N-(thiazol-2-yl)hexanamide] here?
**A.** 1.58 to 15.8 µM

**Q.** For `COc1cccc(CC(C(=O)Nc2nccs2)n2c(C)cc(S(=O)(=O)C3CCCC3)cc2=O)c1` (stereo not drawn) [Example 20, 2-(4-(cyclopentylsulfonyl)-6-methyl-2-oxopyridin-1(2H)-yl)-3-(3-methoxyphenyl)-N-(thiazol-2-yl)propanamide], which EC50 is on record?
**A.** > 15.8 µM

**Q.** Which EC50 does the source give for `Cc1cc(S(=O)(=O)C2CCCC2)cc(=O)n1C(Cc1ccco1)C(=O)Nc1nccs1` (stereo not drawn) [Example 21, 2-(4-(cyclopentylsulfonyl)-6-methyl-2-oxopyridin-1(2H)-yl)-3-(furan-2-yl)-N-(thiazol-2-yl)propanamide] here?
**A.** > 15.8 µM

**Q.** Which EC50 does the source give for `CS(=O)(=O)c1ccn([C@H](CC2CCOCC2)C(=O)Nc2ncc(Cl)s2)c(=O)c1` [Example 22, (R)-N-(5-chlorothiazol-2-yl)-2-(4-(methylsulfonyl)-2-oxopyridin-1(2H)-yl)-3-(tetrahydro-2H-pyran-4-yl)propanamide] here?
**A.** > 15.8 µM

**Q.** With `CS(=O)(=O)c1ccn([C@@H](CC2CCOCC2)C(=O)Nc2ncc(Cl)s2)c(=O)c1` [Example 23, (S)-N-(5-chlorothiazol-2-yl)-2-(4-(methylsulfonyl)-2-oxopyridin-1(2H)-yl)-3-(tetrahydro-2H-pyran-4-yl)propanamide] as the compound, how does the EC50 read?
**A.** 1.58 to 15.8 µM

**Q.** With `Cc1cc(C)cc(CC(C(=O)Nc2ncc(Cl)s2)n2ccc(S(C)(=O)=O)cc2=O)c1` (stereo not drawn) [Example 24, N-(5-chlorothiazol-2-yl)-3-(3,5-dimethylphenyl)-2-(4-(methylsulfonyl)-2-oxopyridin-1(2H)-yl)propanamide] as the compound, how does the EC50 read?
**A.** > 15.8 µM

**Q.** `Cc1cc(S(=O)(=O)C2CC2)cc(=O)n1C(CC(C)(C)C)C(=O)Nc1ncc(Cl)s1` (stereo not drawn) [Example 25, N-(5-chlorothiazol-2-yl)-2-(4-(cyclopropylsulfonyl)-6-methyl-2-oxopyridin-1(2H)-yl)-4,4-dimethylpentanamide] was tested. Which EC50 did it give?
**A.** < 1.58 µM
